Twelve compounds from patent publication US9790215B2 (FLATLEY DISCOVERY LAB, LLC, priority 2013, dated 2017) can be followed below.

For orientation: EC50 means the concentration that produces a half-maximal response.

For this assay, the target named is T1, human ΔF508-CFTR (Homo sapiens, UniProt P13569, DEL508-508).
T1 construct: expressed in transfected cells
The assay is described as follows: CFTR-YFP High Throughput Assay (YFP halide flux in FRT cells). Format: cell-based. The settings on record: FRT cells expressing human ΔF508-CFTR and YFP; forskolin stimulated. The method, boiled down: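 FRT cells stably co-expressing human ΔF508-CFTR and halide-sensitive YFP-H148Q/I152L were treated with compound […] for 24–26 h at 37 °C (corrector mode), washed, then stimulated with 20 μM forskolin plus 30 μM potentiator P3 for 60–120 min at room temperature. Iodide-induced YFP quench (ex 500/em 540 nm) rates came from least-squares fitting.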

SMILES strings stand for the structures. Bounds are passed on as bounds.

T1 sequence (P13569 with tags, fused parts or gaps DEL508-508): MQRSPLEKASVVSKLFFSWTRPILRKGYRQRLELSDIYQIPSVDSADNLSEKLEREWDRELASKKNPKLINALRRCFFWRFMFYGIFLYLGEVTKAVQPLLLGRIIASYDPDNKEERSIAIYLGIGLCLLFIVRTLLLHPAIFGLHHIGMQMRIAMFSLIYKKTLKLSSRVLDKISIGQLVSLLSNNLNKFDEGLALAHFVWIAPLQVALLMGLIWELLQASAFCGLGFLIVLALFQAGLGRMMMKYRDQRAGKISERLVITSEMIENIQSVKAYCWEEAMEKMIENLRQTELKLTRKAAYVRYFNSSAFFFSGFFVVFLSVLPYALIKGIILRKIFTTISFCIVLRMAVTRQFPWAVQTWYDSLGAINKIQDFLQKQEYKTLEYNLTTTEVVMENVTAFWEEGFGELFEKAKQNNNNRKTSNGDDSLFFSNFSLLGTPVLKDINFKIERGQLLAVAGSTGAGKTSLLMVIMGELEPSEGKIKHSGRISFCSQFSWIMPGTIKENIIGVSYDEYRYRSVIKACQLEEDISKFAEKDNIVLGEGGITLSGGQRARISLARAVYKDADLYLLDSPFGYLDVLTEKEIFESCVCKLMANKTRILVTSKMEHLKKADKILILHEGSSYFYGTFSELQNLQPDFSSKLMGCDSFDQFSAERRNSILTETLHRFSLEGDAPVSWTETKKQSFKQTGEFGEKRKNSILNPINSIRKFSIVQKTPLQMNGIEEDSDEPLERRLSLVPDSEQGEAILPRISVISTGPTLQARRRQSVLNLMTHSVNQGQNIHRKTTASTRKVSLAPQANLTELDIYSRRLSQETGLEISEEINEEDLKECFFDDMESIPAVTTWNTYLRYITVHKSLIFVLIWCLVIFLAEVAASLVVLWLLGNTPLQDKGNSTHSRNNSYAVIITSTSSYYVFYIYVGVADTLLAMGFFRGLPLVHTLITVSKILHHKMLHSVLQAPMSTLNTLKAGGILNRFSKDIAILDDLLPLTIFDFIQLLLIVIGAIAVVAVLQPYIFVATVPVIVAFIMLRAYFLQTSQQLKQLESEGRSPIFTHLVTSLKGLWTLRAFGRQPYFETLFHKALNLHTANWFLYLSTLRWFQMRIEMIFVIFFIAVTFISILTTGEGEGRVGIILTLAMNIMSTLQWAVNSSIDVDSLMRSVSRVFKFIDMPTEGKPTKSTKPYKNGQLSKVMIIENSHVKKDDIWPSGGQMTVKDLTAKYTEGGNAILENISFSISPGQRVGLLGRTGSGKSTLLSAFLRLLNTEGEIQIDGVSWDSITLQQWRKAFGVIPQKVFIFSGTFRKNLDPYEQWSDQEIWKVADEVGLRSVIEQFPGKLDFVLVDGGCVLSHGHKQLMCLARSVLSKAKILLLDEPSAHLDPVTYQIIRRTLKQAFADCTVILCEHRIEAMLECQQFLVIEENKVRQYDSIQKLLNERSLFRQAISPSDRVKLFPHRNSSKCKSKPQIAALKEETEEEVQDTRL

Turning to `CCN(C(=O)Cn1nc(C(=O)N(CC)c2ccccc2C#N)c2ccccc2c1=O)c1ccc2c(c1)OC(F)(F)O2` [Example 83, N-(2-cyanophenyl)-3-(2-((2,2-difluoro-benzo[d][1,3]dioxol-5-yl)(ethyl)amino)-2-oxoethyl)-N-ethyl-4-oxo-3,4-dihydro-phthalazine-1-carboxamide], the concentration giving a half-maximal response (EC50) is < 10 µM.
For `CCc1ccc(N(CC)C(=O)Cn2nc(C(=O)Nc3cc(Cl)ccc3C(=O)OC)c3ccccc3c2=O)cc1` [Example 84, methyl 4-chloro-2-(3-(2-(ethyl(4-ethylphenyl)amino)-2-oxoethyl)-4-oxo-3,4-dihydrophthalazine-1-carboxamido)benzoate] the value was < 10 µM; for `CCN(C(=O)Cn1ncc2c(c1=O)c1ccccc1n2Cc1ccccn1)c1ccc2c(c1)OC(F)(F)O2` [Example 85, N-(2,2-difluorobenzo[d][1,3]dioxol-5-yl)-N-ethyl-2-(1-oxo-5-(pyridin-2-ylmethyl)-1H-pyridazino[4,5-b]indol-2(5H)-yl)acetamide], 10 to 20 µM; for `CCN(C(=O)Cn1ncc2c(c1=O)c1ccccc1n2CCOC)c1ccc2c(c1)OC(F)(F)O2` [Example 86, N-(2,2-difluorobenzo[d] [1,3]dioxol-5-yl)-N-ethyl-2-(5-(2-methoxyethyl)-1-oxo-1H-pyridazino[4,5-b]indol-2(5H)-yl)acetamide], < 10 µM.
For `CCN(C(=O)Cn1ncc2c(c1=O)c1ccccc1n2Cc1ccccc1)c1ccc2c(c1)OC(F)(F)O2` [Example 87, 2-(5-benzyl-1-oxo-1H-pyridazino[4,5-b]indol-2(5H)-yl)-N-(2,2-difluorobenzo[d][1,3]dioxol-5-yl)-N-ethylacetamide] the value was < 10 µM; for `CCN(C(=O)Cn1ncc2c(c1=O)c1ccccc1n2CCC(=O)OC)c1ccc2c(c1)OC(F)(F)O2` [Example 88, methyl 3-(2-(2-((2,2-difluorobenzo[d][1,3]dioxol-5-yl)(ethyl)amino)-2-oxoethyl)-1-oxo-1H-pyridazino[4,5-b]indol-5(2H)-yl)propanoate], < 10 µM; for `CCN(C(=O)Cn1ncc2c(c1=O)c1ccccc1n2Cc1cccc(OC)c1)c1ccc2c(c1)OC(F)(F)O2` [Example 89, N-(2,2-difluorobenzo[d] [1,3]dioxol-5-yl)-N-ethyl-2-(5-(3-methoxybenzyl)-1-oxo-1H-pyridazino[4,5-b]indol-2(5H)-yl)acetamide], 10 to 20 µM.
As for `CCN(C(=O)Cn1ncc2c(c1=O)c1ccccc1n2Cc1ccc(OC)cc1)c1ccc2c(c1)OC(F)(F)O2` [Example 90, N-(2,2-difluorobenzo[d][1,3]dioxol-5-yl)-N-ethyl-2-(5-(4-methoxy-benzyl)-1-oxo-1H-pyridazino[4,5-b]indol-2(5H)-yl)acetamide], the EC50 fell in the range of 10 to 20 µM.
For `CCN(C(=O)Cn1ncc2c(c1=O)c1ccccc1n2CCCOC)c1ccc2c(c1)OC(F)(F)O2` [Example 91, N-(2,2-difluorobenzo[d] [1,3]dioxol-5-yl)-N-ethyl-2-(5-(3-methoxypropyl)-1-oxo-1H-pyridazino[4,5-b]indol-2(5H)-yl)acetamide] the value was < 10 µM; for `CCN(C(=O)Cn1ncc2c(c1=O)c1ccccc1n2CCC#N)c1ccc2c(c1)OC(F)(F)O2` [Example 92, 2-(5-(2-cyanoethyl)-1-oxo-1H-pyridazino[4,5-b]indol-2(5H)-yl)-N-(2,2-difluorobenzo[d][1,3]dioxol-5-yl)-N-ethylacetamide], < 10 µM; for `CCN(C(=O)Cn1ncc2c(c1=O)c1ccccc1n2CC#N)c1ccc2c(c1)OC(F)(F)O2` [Example 93, 2-(5-(cyanomethyl)-1-oxo-1H-pyridazino[4,5-b]indol-2(5H)-yl)-N-(2,2-difluorobenzo[d][1,3]dioxol-5-yl)-N-ethylacetamide], < 10 µM.
With `CCN(C(=O)Cn1ncc2c(c1=O)c1ccccc1n2Cc1cccnc1)c1ccc2c(c1)OC(F)(F)O2` [Example 94, N-(2,2-difluorobenzo[d][1,3]dioxol-5-yl)-N-ethyl-2-(1-oxo-5-(pyridin-3-ylmethyl)-1H-pyridazino[4,5-b]indol-2(5H)-yl)acetamide], the 50% effective concentration (EC50) is < 10 µM.
